Test results from article PMC11864979, “First-in-class ultralong-target-residence-time p38α inhibitors as a mitosis-targeted therapy for colorectal cancer” (Nature Cancer, 2025).
Like-named read-outs stand apart in the source and are kept apart here.

Tests used:
Experiment in all cases: selectivity profiling in a panel of 340 wild-type kinases (Reaction Biology Europe)
Type in all cases: binding
340 wild-type kinases [1] = target: T1, 340 wild-type kinases (Homo sapiens, UniProt Q16816)
T1 construct: purchased Reaction Biology Europe

340 wild-type kinases [2] = target: T2, 340 wild-type kinases (Homo sapiens, UniProt P27037)
T2 construct: purchased Reaction Biology Europe

340 wild-type kinases [3] = target: T3, 340 wild-type kinases (Homo sapiens, UniProt P49761)
T3 construct: purchased Reaction Biology Europe

340 wild-type kinases [4] = target: T4, 340 wild-type kinases (Homo sapiens, UniProt O96017)
T4 construct: purchased Reaction Biology Europe

340 wild-type kinases [5] = target: T5, 340 wild-type kinases (Homo sapiens, UniProt Q7KZI7)
T5 construct: purchased Reaction Biology Europe

340 wild-type kinases [6] = target: T6, 340 wild-type kinases (Homo sapiens, UniProt Q9UF33)
T6 construct: purchased Reaction Biology Europe
T6 sequence (Q9UF33 23-1036): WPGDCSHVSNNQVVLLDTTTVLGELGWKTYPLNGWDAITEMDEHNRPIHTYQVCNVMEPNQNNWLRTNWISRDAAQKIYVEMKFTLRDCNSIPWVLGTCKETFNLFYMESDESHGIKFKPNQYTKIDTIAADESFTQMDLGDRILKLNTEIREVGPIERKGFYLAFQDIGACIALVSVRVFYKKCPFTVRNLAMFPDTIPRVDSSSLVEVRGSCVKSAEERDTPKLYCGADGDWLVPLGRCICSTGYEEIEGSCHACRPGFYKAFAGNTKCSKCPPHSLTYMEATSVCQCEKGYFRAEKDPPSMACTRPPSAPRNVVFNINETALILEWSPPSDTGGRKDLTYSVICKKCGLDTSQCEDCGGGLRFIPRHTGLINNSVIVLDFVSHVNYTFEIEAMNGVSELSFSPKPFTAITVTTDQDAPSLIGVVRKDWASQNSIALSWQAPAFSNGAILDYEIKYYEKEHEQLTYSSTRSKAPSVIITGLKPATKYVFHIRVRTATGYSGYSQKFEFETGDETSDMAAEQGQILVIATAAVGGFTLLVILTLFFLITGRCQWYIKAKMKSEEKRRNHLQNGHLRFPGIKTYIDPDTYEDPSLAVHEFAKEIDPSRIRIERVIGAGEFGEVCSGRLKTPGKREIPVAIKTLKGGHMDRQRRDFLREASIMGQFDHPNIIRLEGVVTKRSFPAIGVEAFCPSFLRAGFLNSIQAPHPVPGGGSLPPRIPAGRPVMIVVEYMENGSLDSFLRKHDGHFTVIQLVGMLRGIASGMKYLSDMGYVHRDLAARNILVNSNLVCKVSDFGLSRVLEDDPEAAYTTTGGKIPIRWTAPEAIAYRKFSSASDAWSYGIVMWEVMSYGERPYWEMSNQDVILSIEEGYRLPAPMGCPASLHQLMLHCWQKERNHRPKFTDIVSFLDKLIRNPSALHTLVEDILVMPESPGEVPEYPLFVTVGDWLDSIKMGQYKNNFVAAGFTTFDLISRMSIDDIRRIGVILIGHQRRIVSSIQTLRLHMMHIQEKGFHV

340 wild-type kinases [7] = target: T7, 340 wild-type kinases (Homo sapiens, UniProt Q99759)
T7 construct: purchased Reaction Biology Europe
T7 sequence (Q99759 1-626): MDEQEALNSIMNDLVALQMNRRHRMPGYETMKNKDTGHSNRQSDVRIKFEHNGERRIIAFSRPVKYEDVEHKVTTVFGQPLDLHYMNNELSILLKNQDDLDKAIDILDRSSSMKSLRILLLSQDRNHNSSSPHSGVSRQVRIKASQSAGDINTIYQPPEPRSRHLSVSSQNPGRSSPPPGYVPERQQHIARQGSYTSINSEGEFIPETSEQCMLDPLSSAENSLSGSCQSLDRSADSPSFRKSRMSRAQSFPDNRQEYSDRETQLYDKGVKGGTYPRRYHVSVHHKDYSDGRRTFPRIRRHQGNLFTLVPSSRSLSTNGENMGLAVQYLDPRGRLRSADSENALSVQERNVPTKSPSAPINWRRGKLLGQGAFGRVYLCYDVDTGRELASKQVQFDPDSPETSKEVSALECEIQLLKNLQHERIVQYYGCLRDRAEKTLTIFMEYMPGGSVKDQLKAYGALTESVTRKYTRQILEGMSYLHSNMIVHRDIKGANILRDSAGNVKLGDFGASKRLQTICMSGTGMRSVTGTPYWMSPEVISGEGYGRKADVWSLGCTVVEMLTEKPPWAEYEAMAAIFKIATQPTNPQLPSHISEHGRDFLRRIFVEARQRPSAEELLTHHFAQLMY

340 wild-type kinases [8] = target: T8, 340 wild-type kinases (Homo sapiens, UniProt Q9NQU5)
T8 construct: purchased Reaction Biology Europe
T8 sequence (Q9NQU5 whole entry): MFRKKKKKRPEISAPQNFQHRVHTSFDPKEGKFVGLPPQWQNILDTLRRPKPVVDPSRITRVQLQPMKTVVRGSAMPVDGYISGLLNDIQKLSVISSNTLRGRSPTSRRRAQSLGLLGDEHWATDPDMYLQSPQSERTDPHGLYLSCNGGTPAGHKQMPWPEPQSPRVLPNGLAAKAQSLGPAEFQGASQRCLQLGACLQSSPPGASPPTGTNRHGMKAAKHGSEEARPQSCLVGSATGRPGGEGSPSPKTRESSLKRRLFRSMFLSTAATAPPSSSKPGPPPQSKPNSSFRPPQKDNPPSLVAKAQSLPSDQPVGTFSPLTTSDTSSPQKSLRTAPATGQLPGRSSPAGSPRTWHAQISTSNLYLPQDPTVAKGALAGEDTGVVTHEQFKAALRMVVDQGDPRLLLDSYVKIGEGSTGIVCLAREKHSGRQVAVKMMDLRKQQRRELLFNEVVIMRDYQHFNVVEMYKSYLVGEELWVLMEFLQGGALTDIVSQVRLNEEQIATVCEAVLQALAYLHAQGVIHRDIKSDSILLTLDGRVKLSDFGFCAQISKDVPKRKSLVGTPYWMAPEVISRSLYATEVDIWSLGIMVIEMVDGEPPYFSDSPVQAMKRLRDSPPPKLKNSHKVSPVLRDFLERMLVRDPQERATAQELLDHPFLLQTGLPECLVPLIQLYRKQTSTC

T5 sequence (Q7KZI7 whole entry): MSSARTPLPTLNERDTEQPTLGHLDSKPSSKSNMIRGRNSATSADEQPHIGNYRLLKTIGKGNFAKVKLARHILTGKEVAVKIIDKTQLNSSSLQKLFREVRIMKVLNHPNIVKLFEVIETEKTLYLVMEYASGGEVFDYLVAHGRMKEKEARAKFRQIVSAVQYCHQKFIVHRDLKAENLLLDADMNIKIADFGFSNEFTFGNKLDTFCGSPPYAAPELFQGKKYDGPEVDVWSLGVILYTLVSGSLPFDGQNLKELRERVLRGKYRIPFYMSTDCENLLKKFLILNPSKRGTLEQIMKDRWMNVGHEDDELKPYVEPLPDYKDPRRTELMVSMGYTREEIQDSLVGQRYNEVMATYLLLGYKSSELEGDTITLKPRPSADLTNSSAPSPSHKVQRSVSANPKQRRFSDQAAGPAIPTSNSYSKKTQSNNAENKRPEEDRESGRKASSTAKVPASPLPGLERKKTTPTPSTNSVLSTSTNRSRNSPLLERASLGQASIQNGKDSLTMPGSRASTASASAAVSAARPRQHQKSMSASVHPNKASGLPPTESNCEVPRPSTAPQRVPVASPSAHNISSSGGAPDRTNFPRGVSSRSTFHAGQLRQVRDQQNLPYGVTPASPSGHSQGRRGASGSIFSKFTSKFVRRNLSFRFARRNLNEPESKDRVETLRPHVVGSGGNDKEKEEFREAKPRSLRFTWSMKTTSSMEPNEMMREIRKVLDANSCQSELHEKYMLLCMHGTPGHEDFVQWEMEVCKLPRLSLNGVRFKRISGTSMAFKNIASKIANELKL
T1 sequence (Q16816 whole entry): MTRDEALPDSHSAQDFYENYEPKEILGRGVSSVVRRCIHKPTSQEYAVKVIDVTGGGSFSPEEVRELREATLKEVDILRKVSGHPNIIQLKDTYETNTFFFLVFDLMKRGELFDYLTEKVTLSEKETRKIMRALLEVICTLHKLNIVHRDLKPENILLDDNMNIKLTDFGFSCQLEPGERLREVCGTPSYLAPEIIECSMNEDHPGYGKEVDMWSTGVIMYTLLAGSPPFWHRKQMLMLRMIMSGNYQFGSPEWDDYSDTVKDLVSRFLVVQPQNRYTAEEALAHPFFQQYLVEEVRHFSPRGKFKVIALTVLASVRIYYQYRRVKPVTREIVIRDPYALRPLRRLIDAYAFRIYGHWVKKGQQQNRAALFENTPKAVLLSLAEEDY
T4 sequence (O96017 whole entry): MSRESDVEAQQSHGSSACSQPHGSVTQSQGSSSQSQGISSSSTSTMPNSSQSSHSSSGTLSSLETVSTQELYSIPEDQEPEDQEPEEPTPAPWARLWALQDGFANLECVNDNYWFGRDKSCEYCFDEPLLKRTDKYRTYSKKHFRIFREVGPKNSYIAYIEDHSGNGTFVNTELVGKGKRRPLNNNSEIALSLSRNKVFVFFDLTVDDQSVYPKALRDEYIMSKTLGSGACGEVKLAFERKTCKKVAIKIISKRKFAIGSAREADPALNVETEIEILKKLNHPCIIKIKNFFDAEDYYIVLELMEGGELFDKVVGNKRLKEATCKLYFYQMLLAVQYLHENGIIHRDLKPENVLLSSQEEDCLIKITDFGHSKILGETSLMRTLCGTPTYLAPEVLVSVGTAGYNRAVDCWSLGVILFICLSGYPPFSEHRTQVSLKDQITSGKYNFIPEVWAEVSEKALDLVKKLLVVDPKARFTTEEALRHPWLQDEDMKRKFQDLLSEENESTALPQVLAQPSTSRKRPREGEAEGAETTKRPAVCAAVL
T3 sequence (P49761 whole entry): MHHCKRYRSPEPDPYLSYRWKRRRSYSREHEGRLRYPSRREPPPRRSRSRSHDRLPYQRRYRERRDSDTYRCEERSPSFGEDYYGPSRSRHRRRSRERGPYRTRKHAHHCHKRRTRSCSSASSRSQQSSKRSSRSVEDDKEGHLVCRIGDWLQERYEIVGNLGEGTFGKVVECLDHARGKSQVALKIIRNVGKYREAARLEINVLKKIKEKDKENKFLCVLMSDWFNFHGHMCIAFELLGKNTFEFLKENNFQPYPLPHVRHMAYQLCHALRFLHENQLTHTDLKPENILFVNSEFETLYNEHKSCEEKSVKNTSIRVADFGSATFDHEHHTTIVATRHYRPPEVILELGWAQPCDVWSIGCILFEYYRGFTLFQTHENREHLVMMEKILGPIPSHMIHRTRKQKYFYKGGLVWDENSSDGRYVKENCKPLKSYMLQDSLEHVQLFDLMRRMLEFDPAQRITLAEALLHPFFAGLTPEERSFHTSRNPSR
T2 sequence (P27037 20-513): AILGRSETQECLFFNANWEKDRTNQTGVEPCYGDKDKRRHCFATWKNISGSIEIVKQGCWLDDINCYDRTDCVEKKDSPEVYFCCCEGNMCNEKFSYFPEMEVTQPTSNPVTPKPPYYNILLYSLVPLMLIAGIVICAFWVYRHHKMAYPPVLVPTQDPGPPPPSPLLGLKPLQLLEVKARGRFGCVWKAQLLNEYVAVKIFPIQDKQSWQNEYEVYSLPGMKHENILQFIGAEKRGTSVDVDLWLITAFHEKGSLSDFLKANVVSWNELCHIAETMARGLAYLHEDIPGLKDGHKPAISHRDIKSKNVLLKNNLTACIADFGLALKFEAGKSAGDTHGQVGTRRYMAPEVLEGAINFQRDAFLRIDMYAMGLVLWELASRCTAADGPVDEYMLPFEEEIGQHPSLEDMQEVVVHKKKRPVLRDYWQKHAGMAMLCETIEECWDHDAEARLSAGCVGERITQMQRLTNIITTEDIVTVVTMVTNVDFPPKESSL

With `CNC(=O)c1ccc2c(c1)C(=O)c1ccc(Nc3ccc(F)c(NC(=O)C4CC4)c3)cc1CC2` [Compound 2015] the remaining activity at 0.2 µM (340 wild-type kinases [1]; 0.2 µM 2015, read-out: PHKG1 residual activity) was 90.9%, the remaining activity at 1 µM (340 wild-type kinases [1]; 1 µM 2015, read-out: PHKG1 residual activity) was 102% and the remaining activity at 0.2 µM (340 wild-type kinases [1]; PHKG1, 0.2 µM, read-out: residual activity) was 90.9%. The remaining activity at 1 µM (340 wild-type kinases [1]; PHKG1, 1 µM, read-out: residual activity) was 102%, the remaining activity at 0.2 µM (340 wild-type kinases [2]; 0.2 µM 2015, read-out: ACVR2A residual activity) was 119% and the remaining activity at 1 µM (340 wild-type kinases [2]; 1 µM 2015, read-out: ACVR2A residual activity) was 104%. The remaining activity at 0.2 µM (340 wild-type kinases [2]; ACVR2A, 0.2 µM, read-out: residual activity) was 119%, the remaining activity at 1 µM (340 wild-type kinases [2]; ACVR2A, 1 µM, read-out: residual activity) was 104% and the remaining activity at 0.2 µM (340 wild-type kinases [3]; 0.2 µM 2015, read-out: CLK3 residual activity) was 138%. For the same compound, the remaining activity at 1 µM (340 wild-type kinases [3]; 1 µM 2015, read-out: CLK3 residual activity) was 133%, the remaining activity at 0.2 µM (340 wild-type kinases [3]; CLK3, 0.2 µM, read-out: residual activity) was 138% and the remaining activity at 1 µM (340 wild-type kinases [3]; CLK3, 1 µM, read-out: residual activity) was 133%. It also gave a remaining activity at 0.2 µM (340 wild-type kinases [4]; 0.2 µM 2015, read-out: CHK2 residual activity) of 102%, a remaining activity at 1 µM (340 wild-type kinases [4]; 1 µM 2015, read-out: CHK2 residual activity) of 94.9% and a remaining activity at 0.2 µM (340 wild-type kinases [4]; CHK2, 0.2 µM, read-out: residual activity) of 102%. It also gave a remaining activity at 1 µM (340 wild-type kinases [4]; CHK2, 1 µM, read-out: residual activity) of 94.9%, a remaining activity at 0.2 µM (340 wild-type kinases [5]; 0.2 µM 2015, read-out: MARK2 residual activity) of 101% and a remaining activity at 1 µM (340 wild-type kinases [5]; 1 µM 2015, read-out: MARK2 residual activity) of 99.5%. For the same compound, the remaining activity at 0.2 µM (340 wild-type kinases [5]; MARK2, 0.2 µM, read-out: residual activity) was 101%, the remaining activity at 1 µM (340 wild-type kinases [5]; MARK2, 1 µM, read-out: residual activity) was 99.5% and the remaining activity at 0.2 µM (340 wild-type kinases [6]; 0.2 µM 2015, read-out: EPHA6 residual activity) was 87.2%. For the same compound, the remaining activity at 1 µM (340 wild-type kinases [6]; 1 µM 2015, read-out: EPHA6 residual activity) was 85.9%, the remaining activity at 0.2 µM (340 wild-type kinases [6]; EPHA6, 0.2 µM, read-out: residual activity) was 87.2% and the remaining activity at 1 µM (340 wild-type kinases [6]; EPHA6, 1 µM, read-out: residual activity) was 85.9%. The remaining activity at 0.2 µM (340 wild-type kinases [7]; 0.2 µM 2015, read-out: MEKK3 residual activity) was 105%, the remaining activity at 1 µM (340 wild-type kinases [7]; 1 µM 2015, read-out: MEKK3 residual activity) was 101% and the remaining activity at 0.2 µM (340 wild-type kinases [7]; MEKK3, 0.2 µM, read-out: residual activity) was 105%. It also gave a remaining activity at 1 µM (340 wild-type kinases [7]; MEKK3, 1 µM, read-out: residual activity) of 101%, a remaining activity at 0.2 µM (340 wild-type kinases [8]; 0.2 µM 2015, read-out: PAK6 residual activity) of 98% and a remaining activity at 1 µM (340 wild-type kinases [8]; 1 µM 2015, read-out: PAK6 residual activity) of 89.3%. It also gave a remaining activity at 0.2 µM (340 wild-type kinases [8]; PAK6, 0.2 µM, read-out: residual activity) of 98% and a remaining activity at 1 µM (340 wild-type kinases [8]; PAK6, 1 µM, read-out: residual activity) of 89.3%.
